# Measured values from paper PMC8419995, “In vitro and in vivo efficacy of thiacloprid against Echinococcus multilocularis” (Parasites & Vectors, 2021).
# Key:
# [1] = test system: E. multilocularis protoscoleces; test: Protoscolex viability, 0.1% eosin exclusion test; format: cell-based, Echinococcus multilocularis
# Method: Viable protoscoleces were cultured in Medium 199, supplemented with 1% penicillin–streptomycin, 50 μg/ml gentamicin and 4 mg/ml glucose according to a previously described method. […] PZQ was used as a positive control. The protoscoleces were cultured in an incubator at 37 °C and 5% CO2 for 7 days. Additionally, 0.1% eosin exclusion test was used to evaluate the viability of protoscoleces. To reduce the bias as much as possible, protoscolex viability was observed by two experimenters under double-blind conditions. Each experiment was conducted three times.
# [2] = test system: IL-2, IL-4, IL-10 and IgE; test: ELISA of cytokines and IgE in infected mice; format: in vivo; settings: infected BALB/c mice, 6 weeks oral treatment
# Method: In vitro-grown metacestode vesicles were pressed through a 500 µm mesh and washed three times with sterile PBS. The parasite tissue was then taken up in an equal volume of sterile PBS. Each mouse was intraperitoneally injected with 200 μl suspension. Seven mice were injected with 200 μl PBS as the control group. Twenty-eight infected mice were randomly distributed into four groups (7 mice/group): the untreated group was not administered any drug; the ABZ group was treated with ABZ orally (100 mg/kg/day); and the Thia15 group and Thia30 group received thiacloprid orally (15 mg/kg/day and 30 mg/kg/day). Treatments of mice started 2 weeks post-infection, and treatments were administered daily for 6 weeks. After 6 weeks of treatment, whole blood via the orbital sinus was collected from mice and the animals were euthanized by CO2. Blood samples were incubated at 37 °C for 1 h and centrifuged at 3500 rpm for 10 min at 4 °C. The serum was harvested and stored at –20 °C for IL-2, IL-4, IL-10 and IgE detection. All metacestode tissues were collected, and the total wet weight of metacestodes per mice was determined. Furthermore, the content of cytokines in microcyst fluid was detected by enzyme-linked immunosorbent assay (ELISA). Several metacestode tissue specimens were processed for transmission electron microscopy (TEM) and histopathological experiments.
# ELISA was employed to detect serum IL-2, IL-4, IL-10 and IgE following the manufacturer's instructions. Mouse collagen I and collagen III ELISA kits were used to measure the levels of collagen I and collagen III in the cell culture supernatant after intervention with thiacloprid. All ELISA kits were provided by Elabscience Biotechnology Co., Ltd., Wuhan, China. The OD value at 450 nm was read with a Tecan Infinite M200 PRO enzyme reader (Männedorf, Switzerland), and the concentration was calculated according to the standard curve.
structure (smiles),measurement,setting,value
N#C/N=C1\SCCN1Cc1ccc(Cl)nc1 [thiacloprid],Effect on protoscolex viability,[1]; 1.2 μM,no significant effect
same,Dead protoscoleces,[1]; 5 μM for 4 days,47.33 ± 4.04%
same,"Expression of IL-2, IL-4 and IL-10 in microcyst fluid",[2],upregulated
same,"Expression of IL-2, IL-4 and IL-10 in serum compared with the untreated group",[2],upregulated
same,Expression of IgE in serum compared with the untreated group,[2],downregulated
